PubChem BioAssay AID449764 (Southern Research Specialized Biocontainment Screening …, 2010)
pIC50: −log10 of the molar value.

Test system: Mycobacterium tuberculosis H37Rv growth inhibition, no glycerol
Assay: Confirmatory growth inhibition assay, Mycobacterium tuberculosis H37Rv, absence of glycerol (AID 449764);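 also: growth read after 7 days of incubation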
Conditions: for IC90: measured here: IC90 growth inhibition

SMILES | pIC50 | IC90
COC(=O)c1ccc(C(=O)OC)c(NC(=O)CSc2cccc[n+]2[O-])c1 | 5.24 | 6.25 µM
COc1cc2cc(C(c3nnnn3C(C)(C)C)N3CCc4ccccc43)c(=O)[nH]c2cc1OC (centres undefined) |  | > 100 µM
C/C(=N\NC(N)=S)C1C2C3CC4C5CC(C42)C1C53 (centres undefined) | 4.65 | 31.8 µM
Cc1ccc(C#CC[N+]2(CC#Cc3ccc(C)cc3)CCCCC2)cc1 | 4.67 | 24.8 µM
COc1cccc2sc3ccc(C#CC4(N)CCCCC4)cc3c(=O)c12 | 4.13 | > 100 µM
CCNc1nc(Nc2ccc(C)c(Cl)c2)c2cnn(C)c2n1 | 4.16 | > 100 µM
Brc1ccc(-c2nc3ncccn3c2Nc2ccc3c(c2)OCCO3)o1 | 4.04 | > 100 µM
Oc1[nH]c2ccccc2c1N=NC(=S)N1CCOCC1 | 4.64 | 24.3 µM
CCOC(=O)CCCNC(=O)COC(=O)c1cc(Br)c(Br)s1 | 4.73 | > 100 µM
Cc1cc(C)n(-c2ccc(C(=O)Oc3ccc4c(c3)OCO4)cc2)n1 | 4.93 | > 100 µM
CC1=NN(C(N)=S)C(=O)C1N=Nc1ccc(C)c(Br)c1 (centres undefined) | 4.43 | > 100 µM
O=C(Nc1cccc(-c2csc(Nc3ccc(Cl)cc3)n2)c1)c1cccc(C(F)(F)F)c1 | 4.36 | > 100 µM
O=C(CCl)N1CCCC1c1ccc2c(c1)OCCO2 (centres undefined) | 5.06 | 14.1 µM
Cn1cccc1/C=C1/C(=O)NC(=S)N(Cc2ccc(F)cc2)C1=O |  | > 100 µM
Cc1nc(N2CCC(C)CC2)c2oc3ccccc3c2n1 | 4.65 | 30.3 µM
Cc1cc(O)c2c(c1)C(=O)c1cc(O)cc(O)c1C2=O | 4.05 | > 100 µM
O=[N+]([O-])c1cc(Cl)c(O)c(-[n+]2c(-c3ccccc3)cc(-c3ccccc3)cc2-c2ccccc2)c1 | 5.33 | 7.3 µM
O=[N+]([O-])c1ccc(N2CCCCC2)s1 | 4.86 | 18.5 µM
COC(=O)CSc1ncnc2c1sc1nc3c(cc12)COC(C)(C)C3 | 5.24 | 8.03 µM
CCOc1ccc(NC(=S)Nc2ccc(C)c([N+](=O)[O-])c2)cc1 | 4.56 | > 100 µM
CNc1ncnc2c1ncn2[C@@H]1O[C@H](CO)[C@@H](O)[C@H]1O | 5.40 | 9.18 µM
Cc1cccc(NC(=O)c2nc[nH]c2C(=O)N[C@H](C)c2ccccc2)c1 | 4.99 | > 100 µM
CC(=O)/C=C(\C)Nc1ccccc1O | 5.35 | 5.87 µM

SMILES | pIC50 | IC90
COc1ccc(-n2c(-c3ccc(Cl)cc3)c[n+]3c2CCc2ccccc2-3)cc1 | 4.71 | 26.8 µM
CN(c1ccccc1)c1ccc(/C=C/[N+](=O)[O-])cc1 | 4.82 | 28 µM
COc1ccccc1NC(=O)C(C)OC(=O)/C=C/c1ccc2ccccc2n1 (centres undefined) | 5.16 | 13.1 µM
Nc1n[nH]c(C2CC2)c1N=Nc1ccc(Cl)cc1 | 4.49 | 54.3 µM
Cc1nc(N2CCN(c3ccccn3)CC2)c2c(C)c(C(=O)N3CCN(c4ccc(F)cc4)CC3)sc2n1 | 4.95 | 12.9 µM
C=CCOc1ccc(C2C(C#N)=C(N)N(Nc3ccccc3)C3=C2C(=O)CC(C)(C)C3)cc1OC (centres undefined) | 4.38 | > 100 µM
CN(C)c1ccc(-c2cc(O)c3ncccc3c2)cc1 | 5.58 | 3.53 µM
CCc1ccc(NC(=O)CSc2nc3n[nH]c(C)c3c(=N)n2-c2cccc(OC)c2)cc1 | 4.14 | > 100 µM
NC(N)=N/N=C/c1ccc(N(c2ccccc2)c2ccccc2)cc1 | 5.01 | 12.8 µM
COc1ccc(-c2c[n+]3c4n2CCCCC4=C(c2ccccc2)C3)cc1 | 4.20 | 78.7 µM
CN1C(=O)/C(=C/c2ccccc2Cl)Sc2ccc(C(=O)NCc3cccnc3)cc21 | 4.30 | 89.8 µM
CCOC(=O)CSc1nsc(SCC(=O)OCC)c1C#N | 4.92 | 13.5 µM
CCOC(=O)COn1c2c(c3c4no[n+]([O-])c4ccc31)CCCC2 | 5.25 | 6.48 µM
Cc1ccc(CN2CCC(c3cc(-c4ccc(Cl)cc4)n[nH]3)CC2)cc1 | 4.93 | 18.2 µM
COCCOC(=O)c1ccc(NC(=O)COc2ccc([N+](=O)[O-])cc2)cc1 |  | > 100 µM
O=C(CCC(=O)NC1CCCCCCC1)Nc1nnc(C(F)(F)F)s1 | 4.92 | 13.8 µM
O=c1cc2[nH]c3ccccc3c(=O)n2nc1-c1ccccc1 | 4.98 | 15 µM
COc1ccccc1C(CNC(=O)C(C)(C)Oc1ccc(Cl)cc1)N1CCCC1 (centres undefined) | 4.57 | 42 µM
CC1CCC(C(C)C)C(OC(=O)Cn2c(-c3ccc(F)cc3)[n+](C)c3ccccc32)C1 (centres undefined) | 4.97 | 14.4 µM
O=C(Nc1ccc(OC(F)(F)F)cc1)c1ccc2c(c1)no[n+]2[O-] | 6.62 | 0.32 µM
CCCn1c(CC)nc([N+](=O)[O-])c1S(=O)(=O)c1ccccc1 | 4.74 | 23.6 µM
O=C(CCl)c1ccc2c(c1)CCN2C(=O)C1CCCCC1 | 4.38 | > 100 µM
O=C(CSc1nn(-c2ccc(F)cc2)c(=S)s1)NCC1CCCO1 (centres undefined) | 4.68 | > 100 µM

SMILES | pIC50 | IC90
CCn1c(C)c(C)c2cc(C(=O)Nc3cccc(Cl)c3)ccc21 | 4.44 | > 100 µM
O=C(CSc1nnnn1-c1ccc2c(c1)OCCO2)OC1CCCCC1 | 4.64 | 25.7 µM
N#C/C=C\Oc1ccc(Cl)cc1N | 4.67 | 23.9 µM
O=C(CCN1C(=O)/C(=C/c2ccccc2)SC1=S)Nc1ccccn1 |  | > 100 µM
O=C(CCc1c[nH]c2ccccc12)N1CCN(S(=O)(=O)c2ccccc2)CC1 | 4.10 | > 100 µM
CCOC(=O)c1ccc(N=c2sc(C(=O)OC)cc(=O)n2CCCN2CCOCC2)cc1 | 5.04 | 16.9 µM
O=C(OCc1nc2ccccc2s1)c1ccc(Br)o1 | 4.47 | > 50 µM
CCOC(=O)CSc1nnc(SCCN2C(=O)c3ccccc3C2=O)s1 | 5.06 | 22.4 µM
O=C(c1ccc(Br)cc1)C(CN1CCOCC1)c1ccccc1 (centres undefined) | 4.92 | 13.8 µM
COC(=O)CSc1nnc([C@H](CC(C)C)NC(=O)OC(C)(C)C)o1 | 4.66 | 29.9 µM
Cc1ccccc1NC(=O)Cc1nc(COC(=O)/C=C/c2ccccc2)cs1 | 4.17 | 92.3 µM
Cc1ccnc(NC(=O)COc2ccc3c(c2)CCC3)c1 | 4.07 | > 100 µM
CSCCC1NC(=O)N(CC(=O)N2N=C(c3ccc(Cl)cc3)CC2c2ccco2)C1=O (centres undefined) | 4.96 | 13.6 µM
CNc1ccc2oc(C[C@H]3O[C@@]4(CC[C@H]3C)O[C@H]([C@H](C)C(=O)c3ccc[nH]3)[C@H](C)C[C@H]4C)nc2c1C(=O)O | 5.55 | 3.18 µM
O=[N+]([O-])c1cnc(Nc2ccc(Cl)cn2)c([N+](=O)[O-])c1 | 4.04 | 99.4 µM
COC(=O)N/N=C/c1c[n+]([O-])c2ccccc2[n+]1[O-] | 4.73 | 27.5 µM
C(=N\Nc1ccc2ccccc2n1)/c1ccc2c(c1)OCCO2 | 5.30 | 7.13 µM
Cc1ccc(OCCN2CCN(c3ncnc4sc(C)c(C)c34)CC2)cc1 | 4.27 | 79.3 µM
O=C(Oc1ccccc1)c1ccccc1OS(=O)(=O)c1ccccc1 | 5.63 | 14.1 µM
O=C(CCl)NCc1cc(-c2ccc(Cl)cc2)no1 | 6.46 | > 100 µM
COc1cccc(-c2nnc(NC(=O)c3ccc(S(=O)(=O)N4CCOCC4)cc3)o2)c1 | 4.49 | 46 µM
CCOC(=O)c1nnc(-c2ccccc2)nc1Sc1ccccc1Cl | 4.04 | > 100 µM
Cc1ccc(OCc2cc(C(=O)N(C)Cc3cnc4ccccn34)no2)cc1C | 4.45 | > 100 µM

SMILES | pIC50 | IC90
CCc1nnc(N/N=C/c2cc(C)c(C)cc2C)n1N | 5.23 | 6.55 µM
COc1ccc(C2CC2/C(C)=N/OC(=O)c2ccc(F)cc2)cc1 (centres undefined) | 4.60 | 52.2 µM
Cc1ccc(C(=O)C[n+]2cc(-c3ccc(C)cc3)n3c2CCCCC3)cc1 | 4.65 | 25.4 µM
CN(CCCC1CCCC1)C(=O)CCc1nnc(-c2ccccc2)o1 | 4.77 | 28 µM
COc1ccc(-c2ccc(OC)c([C@H]3[C@@H]4C=CCC[C@@]4(C)C(=O)N3Cc3ccccc3)c2)cc1OC | 4.05 | > 100 µM
Cc1nc(N)nc(N)c1CCCc1ccc(Cl)c(Cl)c1 | 4.06 | > 100 µM
NC(=S)NNc1ccc(Cl)c(Cl)c1 | 5.11 | 12.1 µM
CCCCOC(=O)CSc1nnc(-c2ccc(Cl)cc2Cl)o1 | > 6.70 | 7.21 µM
COc1cc(/C=C/C(=O)c2c(O)n(CCc3ccccc3)c(=O)[nH]c2=O)ccc1O | 4.84 | 21.8 µM
CC(C)Cc1nc2oc3c(N4CCN(CCO)CC4)ncnc3c2c2c1CCCC2 | 4.74 | 24.9 µM
c1ccc(Nc2nc(N3CCCCC3)nc(N3CCNCC3)n2)cc1 | 4.35 | 69.4 µM
Cc1nc([N+](=O)[O-])c(Br)n1CC(=O)c1ccc2ccccc2c1 | 4.95 | 12.7 µM
C[n+]1c(-c2ccccc2)cc(CCCCc2cc(-c3ccccc3)[n+](C)c(-c3ccccc3)c2)cc1-c1ccccc1 | 4.61 | 28.3 µM
Cn1cnc([N+](=O)[O-])c1Sc1ccc(Br)cc1 | 4.71 | 26.1 µM
CC(C)NC(=S)N/N=C/c1c[nH]c2ccccc12 |  | > 100 µM
O=C(/C=C/c1cn(-c2ccccc2)nc1-c1cccnc1)c1ccco1 | 4.40 | 54.8 µM
Nc1c(C(=O)NC2CCCCC2)nsc1C(=O)OCC(=O)NC1CCCCC1 | 5.54 | 3.4 µM
COc1ccc(-c2cc(-c3ccccc3)c(C#N)c(S(C)=O)n2)cc1 (centres undefined) | 4.04 | > 100 µM
CC(C)(C)CC(C)(C)c1ccc(OCCOCC[N+](C)(C)Cc2ccccc2)cc1 | 4.37 | 47.1 µM
Cc1ccc(-c2ccc(C3C(C#N)=C(N)Oc4n[nH]c(C)c43)o2)cc1 (centres undefined) |  | > 100 µM
COc1ccc(C(=O)/C=C/Sc2nc3ccccc3o2)cc1 | 4.04 | > 100 µM
